# Tests used:
# [1] = test system: RENCA RCC cells co-cultured with RAW264.7 macrophages; assay: Transwell invasion analysis of RENCA RCC cells co-cultured with RAW264.7 macrophages; format: cell-based, mouse; conditions: compound treatment, FIGS. 11, 12, 16, 17
# Protocol: RENCA mouse renal epithelial adenocarcinoma cells and RAW264.7 mouse macrophages were purchased from the Korean Cell Line Bank (Seoul, Korea). RENCA and RAW264.7 cells were maintained in Dulbecco's Modified Eagle Medium (DMEM) medium (Gibco, Thermo Fisher Scientific, Waltham, Mass., USA) supplemented with 10% FBS and 1% penicillin/streptomycin.
# Cancer cell invasion analysis was performed in a 24-well transwell plate (Corning Costar, New York, N.Y., USA). A transwell having a pore size of 8 μm was coated with Type I collagen (3 μg/60 μL/well). A total of 4×10^4 bone marrow-derived macrophage (BMDM) cells were seeded in the lower chamber and differentiated into macrophages by using cancer CM. A total of 1×10^4 cancer cells were seeded into the upper transwell. After 24 or 48 hours, cancer cells that invaded into the lower chamber through the porous membrane were fixed with 3.7% formaldehyde and stained with 0.2% crystal violet. Images of the stained cells were obtained by using an optical microscope (CKX41, Olympus, Tokyo, Japan) and analyzed by using the ImageJ software program (NIH, Bethesda, Md., RRID:SCR_003070). To evaluate the effect of DUSP22 or MAPK14 knockdown, 1×10^5 RAW264.7 cells were seeded in the lower chamber and transfected with siRNA.
# [2] = test system: RCC cells co-transplanted with macrophages; assay: Zebrafish cancer xenograft model of RCC cell dissemination (early stage of metastasis); format: in vivo; conditions: macrophages treated with compound before co-transplantation with RCC cells into zebrafish embryos; vs DMSO-treated macrophages; FIGS. 14, 15
# Protocol: Evaluation of in vivo mouse RCC cell dissemination (early stage of metastasis) was performed by using a validated zebrafish model.
# Embryos of 48 hours post-fertilization were prepared for cell xenotransplantation and either 39 or 44 embryos were used for each treatment group. After the RCC cells were stained with 2 μg/mL DiI (Invitrogen), the villus of the embryos was removed, and then the embryos were anesthetized with 0.0016% tricaine. An injector (Picospritzer ? , Parker Hannifin, Cleveland, Ohio, USA) was used to inject 200 RCC cells into the center of egg yolk or a mixture of the RCC cells and DMSO-treated macrophages or of the RCC cells and DUSP inhibitor-treated macrophages (1:1 ratio) was injected to the center of egg yolk. The xenotransplanted embryos were transferred to a 96-well plate of 200 μL of E3 medium. The number of embryos, representing the dissemination of cancer cells from the injection site, was counted by using a fluorescence microscope (Leica DM2500 Microscope).
SMILES,RCC invasion induced by the co-culture with macrophages [1],dissemination (early stage of metastasis) in vivo [2]
O=C(O)c1ccc(/C=C2\SC(=S)N(c3cccc(C(F)(F)F)c3)C2=O)cc1 [CFTRinh-172],inhibited,
O=C(O)c1ccc(N2C(=O)/C(=C/c3ccccc3)SC2=S)cc1 [BML-260],inhibited,significantly inhibited

# Source: patent US20230242993A1, “METHOD FOR SCREENING MARKERS FOR PREDICTING PROGNOSIS OF RENAL CELL CARCINOMA USING TRANSCRIPTOMIC ANALYSIS” (Gwangju Institute of Science and Technology, priority 2021, published 2023)
